In this data set the test system is Serum. The data set is described as follows: Stability in human serum assessed as full-length compound remaining after 10 mins by anion-exchange HPLC. It is filed as ADME, cell-free. The following applies: 10 min.

Structures are written as SMILES.

In the case of `Nc1ccn([C@@H]2O[C@H](COP(=O)(S)O[C@H]3[C@@H](O)[C@H](n4cnc5c(N)ncnc54)O[C@@H]3COP(=O)(S)O[C@H]3[C@@H](O)[C@H](n4cnc5c(=O)[nH]c(N)nc54)O[C@@H]3COP(=O)(S)O[C@H]3[C@@H](O)[C@H](n4ccc(=O)[nH]c4=O)O[C@@H]3COP(=O)(S)O[C@H]3[C@@H](O)[C@H](n4cnc5c(=O)[nH]c(N)nc54)O[C@@H]3COP(=O)(S)O[C@H]3[C@@H](O)[C@H](n4ccc(=O)[nH]c4=O)O[C@@H]3COP(=O)(S)O[C@H]3[C@@H](O)[C@H](n4cnc5c(=O)[nH]c(N)nc54)O[C@@H]3COP(=O)(S)O[C@H]3[C@@H](O)[C@H](n4ccc(=O)[nH]c4=O)O[C@@H]3COP(=O)(S)O[C@H]3[C@@H](O)[C@H](n4ccc(=O)[nH]c4=O)O[C@@H]3COP(=O)(S)O[C@H]3[C@@H](O)[C@H](n4cnc5c(=O)[nH]c(N)nc54)O[C@@H]3COP(=O)(S)O[C@H]3[C@@H](O)[C@H](n4ccc(=O)[nH]c4=O)O[C@H]3CO)[C@@H](OP(=O)(S)OCC(O)COP(=O)(S)O[C@H]3[C@@H](O)[C@H](n4ccc(N)nc4=O)O[C@@H]3COP(=O)(S)O[C@H]3[C@@H](O)[C@H](n4cnc5c(N)ncnc54)O[C@@H]3COP(=O)(S)O[C@H]3[C@@H](O)[C@H](n4cnc5c(=O)[nH]c(N)nc54)O[C@@H]3COP(=O)(S)O[C@H]3[C@@H](O)[C@H](n4ccc(=O)[nH]c4=O)O[C@@H]3COP(=O)(S)O[C@H]3[C@@H](O)[C@H](n4cnc5c(=O)[nH]c(N)nc54)O[C@@H]3COP(=O)(S)O[C@H]3[C@@H](O)[C@H](n4ccc(=O)[nH]c4=O)O[C@@H]3COP(=O)(S)O[C@H]3[C@@H](O)[C@H](n4cnc5c(=O)[nH]c(N)nc54)O[C@@H]3COP(=O)(S)O[C@H]3[C@@H](O)[C@H](n4ccc(=O)[nH]c4=O)O[C@@H]3COP(=O)(S)O[C@H]3[C@@H](O)[C@H](n4ccc(=O)[nH]c4=O)O[C@@H]3COP(=O)(S)O[C@H]3[C@@H](O)[C@H](n4cnc5c(=O)[nH]c(N)nc54)O[C@@H]3COP(=O)(S)O[C@H]3[C@@H](O)[C@H](n4ccc(=O)[nH]c4=O)O[C@@H]3CO)[C@H]2O)c(=O)n1` (stereo in doubt; 5), the Stability is 75%.

For the origin of these results see ChEMBL document CHEMBL1151840, “Synthetic oligoribonucleotides containing arabinonucleotides act as agonists of TLR7 and 8” (Bioorg Med Chem Lett, 2009).
